Results taken from ChEMBL document CHEMBL5335807, “Rational design, synthesis and biological evaluation of novel HIV-1 protease inhibitors containing 2-phenylacetamide derivatives as P2 ligands with potent activity against DRV-Resistant HIV-1 variants” (Bioorg Med Chem Lett, 2024).

Key:
[1] = biological target: Human immunodeficiency virus type 1 protease (Human immunodeficiency virus 1, UniProt Q72874); test: Inhibition of HIV-1 protease by fluorescence resonance energy transfer analysis
[2] = Resistance index, ratio of EC50 for antiviral activity against DRV-resistant HIV-1 to EC50 for antiviral activity against wild type HIV-1 NL4-3; format: functional, Human immunodeficiency virus 1
[3] = tested on: Human immunodeficiency virus 1; test: Antiviral activity against HIV-1 NL4-3 assessed as inhibition of viral growth; format: functional, organism-based; details: Human immunodeficiency virus 1, NL4-3
[4] = tested on: Human immunodeficiency virus 1; test: Antiviral activity against DRV-resistant HIV-1 assessed as inhibition of viral growth by single-round infection assay; format: functional, organism-based; details: Human immunodeficiency virus 1, DRV

| SMILES | IC50 [1] [nM] | further results |
| --- | --- | --- |
| CSc1ccc(S(=O)(=O)N(CC(C)C)C[C@@H](O)[C@H](Cc2ccccc2)NC(=O)Cc2ccc(O)c(O)c2)cc1 | 2.29 | – |
| COc1ccc(CC(=O)N[C@@H](Cc2ccccc2)[C@H](O)CN(CC(C)C)S(=O)(=O)c2ccc(N)cc2)cc1 | 377 | – |
| COc1ccc(S(=O)(=O)N(CC(C)C)C[C@@H](O)[C@H](Cc2ccccc2)NC(=O)Cc2cccc(OC)c2)cc1 | 6.95 | – |
| COc1ccc(S(=O)(=O)N(CC(C)C)C[C@@H](O)[C@H](Cc2ccccc2)NC(=O)Cc2ccc(O)c(O)c2)cc1 | 0.54 | Ratio EC50 [2]: 12.5; EC50 [3]: 1860 nM; EC50 [4]: 23200 nM |
| COc1ccc(CC(=O)N[C@@H](Cc2ccccc2)[C@H](O)CN(CC(C)C)S(=O)(=O)c2ccc(SC)cc2)cc1OC | 171 | – |
| COc1ccc(S(=O)(=O)N(CC(C)C)C[C@@H](O)[C@H](Cc2ccccc2)NC(=O)Cc2ccc(OC)c(O)c2)cn1 | 13 | – |
| COc1cccc(CC(=O)N[C@@H](Cc2ccccc2)[C@H](O)CN(CC(C)C)S(=O)(=O)c2ccc(N)cc2)c1 | 35.1 | – |
| CC(C)CN(C[C@@H](O)[C@H](Cc1ccccc1)NC(=O)Cc1ccc(O)c(O)c1)S(=O)(=O)c1ccc(N)cc1 | 9.46 | – |
| COc1ccc(S(=O)(=O)N(CC(C)C)C[C@@H](O)[C@H](Cc2ccccc2)NC(=O)Cc2ccc(O)cc2)cc1 | 2.22 | – |
| COc1ccc(CC(=O)N[C@@H](Cc2ccccc2)[C@H](O)CN(CC(C)C)S(=O)(=O)c2ccc(OC)cc2)cc1 | 21 | – |
| CC(C)CN(C[C@@H](O)[C@H](Cc1ccccc1)NC(=O)Cc1ccc(O)cc1)S(=O)(=O)c1ccc(N)cc1 | 32 | – |
| COc1ccc(S(=O)(=O)N(CC(C)C)C[C@@H](O)[C@H](Cc2ccccc2)NC(=O)Cc2ccc(O)c(O)c2)cn1 | 2.87 | – |
| COc1ccc(CC(=O)N[C@@H](Cc2ccccc2)[C@H](O)CN(CC(C)C)S(=O)(=O)c2ccc(SC)cc2)cc1O | 9.28 | – |
| COc1ccc(S(=O)(=O)N(CC(C)C)C[C@@H](O)[C@H](Cc2ccccc2)NC(=O)Cc2ccc(O)c(OC)c2)cc1 | 50 | – |
| CSc1ccc(S(=O)(=O)N(CC(C)C)C[C@@H](O)[C@H](Cc2ccccc2)NC(=O)Cc2cccc(O)c2)cc1 | 2.18 | Ratio EC50 [2]: 2.51; EC50 [3]: 940 nM; EC50 [4]: 2360 nM |
| COc1ccc(S(=O)(=O)N(CC(C)C)C[C@@H](O)[C@H](Cc2ccccc2)NC(=O)Cc2ccc(OC)c(OC)c2)cc1 | 85 | – |

| SMILES | IC50 [1] [nM] | further results |
| --- | --- | --- |
| CSc1ccc(S(=O)(=O)N(CC(C)C)C[C@@H](O)[C@H](Cc2ccccc2)NC(=O)Cc2ccc(O)cc2)cc1 | 4.2 | – |
| COc1cccc(CC(=O)N[C@@H](Cc2ccccc2)[C@H](O)CN(CC(C)C)S(=O)(=O)c2ccc(OC)nc2)c1 | 12.5 | – |
| COc1cccc(CC(=O)N[C@@H](Cc2ccccc2)[C@H](O)CN(CC(C)C)S(=O)(=O)c2ccc(SC)cc2)c1 | 30.4 | – |
| CC(C)CN(C[C@@H](O)[C@H](Cc1ccccc1)NC(=O)Cc1cccc(O)c1)S(=O)(=O)c1ccc(N)cc1 | 5.55 | – |
| COc1ccc(S(=O)(=O)N(CC(C)C)C[C@@H](O)[C@H](Cc2ccccc2)NC(=O)Cc2ccc(O)cc2)cn1 | 7.26 | – |
| COc1ccc(CC(=O)N[C@@H](Cc2ccccc2)[C@H](O)CN(CC(C)C)S(=O)(=O)c2ccc(N)cc2)cc1OC | 1020 | – |
| COc1ccc(S(=O)(=O)N(CC(C)C)C[C@@H](O)[C@H](Cc2ccccc2)NC(=O)Cc2ccc(OC)c(O)c2)cc1 | 3.97 | – |
| COc1ccc(CC(=O)N[C@@H](Cc2ccccc2)[C@H](O)CN(CC(C)C)S(=O)(=O)c2ccc(N)cc2)cc1O | 27.5 | – |
| COc1ccc(S(=O)(=O)N(CC(C)C)C[C@@H](O)[C@H](Cc2ccccc2)NC(=O)Cc2ccc(OC)c(OC)c2)cn1 | 176 | – |
| COc1ccc(S(=O)(=O)N(CC(C)C)C[C@@H](O)[C@H](Cc2ccccc2)NC(=O)Cc2cccc(O)c2)cc1 | 0.87 | Ratio EC50 [2]: 8.43; EC50 [3]: 1050 nM; EC50 [4]: 8850 nM |
| COc1ccc(S(=O)(=O)N(CC(C)C)C[C@@H](O)[C@H](Cc2ccccc2)NC(=O)Cc2cccc(O)c2)cn1 | 1.2 | Ratio EC50 [2]: 5.26; EC50 [3]: 950 nM; EC50 [4]: 5020 nM |
| COc1ccc(S(=O)(=O)N(CC(C)C)C[C@@H](O)[C@H](Cc2ccccc2)NC(=O)Cc2ccc(O)c(OC)c2)cn1 | 170 | – |
| COc1cc(CC(=O)N[C@@H](Cc2ccccc2)[C@H](O)CN(CC(C)C)S(=O)(=O)c2ccc(N)cc2)ccc1O | 379 | – |
| COc1ccc(CC(=O)N[C@@H](Cc2ccccc2)[C@H](O)CN(CC(C)C)S(=O)(=O)c2ccc(OC)nc2)cc1 | 51.8 | – |
| COc1cc(CC(=O)N[C@@H](Cc2ccccc2)[C@H](O)CN(CC(C)C)S(=O)(=O)c2ccc(SC)cc2)ccc1O | 116 | – |
| COc1ccc(CC(=O)N[C@@H](Cc2ccccc2)[C@H](O)CN(CC(C)C)S(=O)(=O)c2ccc(SC)cc2)cc1 | 85.8 | – |
